These results are taken from article PMC3608651, “A Broad Profile of Co-Dominant Epitopes Shapes the Peripheral Mycobacterium tuberculosis Specific CD8+ T-Cell Immune Response in South African Patients with Active Tuberculosis” (PLoS ONE, 2013).

What all share (assay type): binding
In one assay the target is HLA-B*58:01 (Homo sapiens, UniProt P01889, A329T/C349S/D201E/D98Y/E176V/E187L/E204Q/E69T/G107R/I218V/I90N/K202T/L105A/L119I/N104I/N87E/Q89R/Q94S/R106L/R155S/R180L/R86G/S101N/S121R/S35A/S48A/T118I/V127L/V306I/V36M/Y140S/Y91M). The conditions noted are these: percent relative the binding of positive control peptide […]; duplicated experiments; positive binder >40%.
Another assay concerns the target HLA-A*30:02 (Homo sapiens, UniProt P04439, D101N/D140H/D185E/E176R/F33S/G80R/H175R/K168Q/Q94H/R138E/R41S/V100E). The conditions noted are these: percent relative the binding of positive control peptide […]; duplicated experiments; positive binder >40%.
A further assay addresses HLA-B*07:02 (Homo sapiens, UniProt P01889). The conditions noted are these: percent relative the binding of positive control peptide […]; duplicated experiments; positive binder >40%.
A further assay concerns the target HLA-A*02:01 (Homo sapiens, UniProt P04439, D140Y/D185E/D98H/E176V/E277Q/G131W/G231S/I119V/I121R/I166T/I218V/L300P/L318F/N151K/N90K/P208A/P217A/Q86G/Q94H/R138H/R169H/T345S). The conditions noted are these: percent relative the binding of positive control peptide […]; plate-bound monomer 0.5 µg/ml; duplicated experiments; positive binder >40%.
In the next assay the target is HLA-A*30:01 (Homo sapiens, UniProt P04439, D140H/D185E/E176W/F33S/G80R/H175R/K168Q/R138E/R41S). The conditions noted are these: percent relative the binding of positive control peptide […]; duplicated experiments; positive binder >40%.
The next assay concerns the target HLA-A*24:02 (Homo sapiens, UniProt P04439, D101N/D140Y/D185E/E176V/E190D/F33S/G103R/G107R/I119L/I121M/I306V/K335N/L105A/L180Q/L300P/N151K/N90K/Q86E/Q94H/R106L/R138H/R89G/T104I/T345S/V100E/W191G/Y123F). The conditions noted are these: percent relative the binding of positive control peptide […]; duplicated experiments; positive binder >40%.
Another assay addresses HLA-A*68:01 (Homo sapiens, UniProt P04439, A269V/D185E/E176V/E277Q/E87N/F33Y/G231S/I121M/I166T/I218V/L180W/L300P/L318F/N151K/P208A/P217A/Q86R/R169H/T345S). The conditions noted are these: percent relative the binding of positive control peptide […]; duplicated experiments; positive binder >40%.
The next assay concerns the target HLA-C*07:01 (Homo sapiens, UniProt P10321, K90N/S123Y). The conditions noted are these: percent relative the binding of positive control peptide […]; duplicated experiments; positive binder >40%.

Consider NGW DINTPA, for which, on HLA-B*58:01, the “Bind B*58:01” value worked out at 0%. The “Bind A*30:02” value on HLA-A*30:02 is on record as 0%. On HLA-B*07:02, the “Bind B*07:02” value stood at 21%. The “Bind A*02:01” value at HLA-A*02:01 worked out at 87%. Moreover, at HLA-A*30:01, the “Bind A*30:01” value was 8%. The “Bind A*24:02” value on HLA-A*24:02 was determined as 36%. Besides, the “Bind A*68:01” value on HLA-A*68:01 is listed as 4%. The “Bind C*07:01” value on HLA-C*07:01 stood at 14%.

Turning to RLWVYCGNG, on HLA-B*58:01, the “Bind B*58:01” value came out at 8%. Moreover, at HLA-A*30:02, the “Bind A*30:02” value turned out to be 65%. Moreover, the “Bind B*07:02” value at HLA-B*07:02 came to 2%. Also, the “Bind A*02:01” value at HLA-A*02:01 was 45%. Further, at HLA-A*30:01, the “Bind A*30:01” value was found to be 0%. Also, the “Bind A*24:02” value on HLA-A*24:02 amounted to 0%. Besides, on HLA-A*68:01, the “Bind A*68:01” value stood at 12%. Besides, the “Bind C*07:01” value at HLA-C*07:01 was found to be 9%.

In the case of MILAAYHPQ, the “Bind B*58:01” value at HLA-B*58:01 was found to be 11%. Besides, at HLA-A*30:02, the “Bind A*30:02” value is reported as 82%. Further, the “Bind B*07:02” value at HLA-B*07:02 came to 0%. In addition, the “Bind A*02:01” value at HLA-A*02:01 came to 56%. The “Bind A*30:01” value at HLA-A*30:01 stood at 0%. Besides, the “Bind A*24:02” value on HLA-A*24:02 was determined as 0%. Moreover, the “Bind A*68:01” value on HLA-A*68:01 stood at 0%. On HLA-C*07:01, the “Bind C*07:01” value is given as 4%.

On to VKPTGSAAI, for which, on HLA-B*58:01, the “Bind B*58:01” value was 0%. Further, the “Bind A*30:02” value at HLA-A*30:02 is reported as 0%. Moreover, the “Bind B*07:02” value on HLA-B*07:02 came out at 43%. Besides, the “Bind A*02:01” value on HLA-A*02:01 was 0%. The “Bind A*30:01” value at HLA-A*30:01 was 0%. Further, the “Bind A*24:02” value at HLA-A*24:02 is 0%. For the same substance, the “Bind A*68:01” value at HLA-A*68:01 is recorded as 0%. Moreover, on HLA-C*07:01, the “Bind C*07:01” value came to 0%.

Take DAYNAAGGH: the “Bind B*58:01” value at HLA-B*58:01 is on record as 29%. Besides, on HLA-A*30:02, the “Bind A*30:02” value amounted to 18%. In addition, the “Bind B*07:02” value on HLA-B*07:02 came out at 12%. For the same substance, on HLA-A*02:01, the “Bind A*02:01” value was 4%. Further, the “Bind A*30:01” value on HLA-A*30:01 turned out to be 8%. Moreover, the “Bind A*24:02” value on HLA-A*24:02 stood at 14%. For the same substance, the “Bind A*68:01” value at HLA-A*68:01 was determined as 64%. For the same substance, the “Bind C*07:01” value on HLA-C*07:01 is 16%.

Consider PNGTHSWEY, for which, on HLA-B*58:01, the “Bind B*58:01” value came to 0%. For the same substance, the “Bind A*30:02” value on HLA-A*30:02 worked out at 77%. Moreover, the “Bind B*07:02” value at HLA-B*07:02 is reported as 8%. Besides, at HLA-A*02:01, the “Bind A*02:01” value was 0%. On HLA-A*30:01, the “Bind A*30:01” value turned out to be 0%. For the same substance, the “Bind A*24:02” value on HLA-A*24:02 is recorded as 0%. The “Bind A*68:01” value at HLA-A*68:01 was determined as 9%. Also, the “Bind C*07:01” value at HLA-C*07:01 amounted to 48%.

As for ACGKAGCQT, the “Bind B*58:01” value on HLA-B*58:01 is listed as 0%. Also, on HLA-A*30:02, the “Bind A*30:02” value is 0%. Besides, on HLA-B*07:02, the “Bind B*07:02” value amounted to 9%. Also, the “Bind A*02:01” value at HLA-A*02:01 was found to be 44%. The “Bind A*30:01” value at HLA-A*30:01 is given as 19%. In addition, the “Bind A*24:02” value at HLA-A*24:02 came out at 25%. Also, at HLA-A*68:01, the “Bind A*68:01” value was determined as 13%. Besides, the “Bind C*07:01” value at HLA-C*07:01 came out at 0%.

Regarding SQGMGPSLI, the “Bind B*58:01” value on HLA-B*58:01 was 11%. Also, the “Bind A*30:02” value at HLA-A*30:02 came out at 0%. At HLA-B*07:02, the “Bind B*07:02” value stood at 2%. Moreover, the “Bind A*02:01” value at HLA-A*02:01 is 50%. In addition, the “Bind A*30:01” value on HLA-A*30:01 was 11%. Moreover, at HLA-A*24:02, the “Bind A*24:02” value is 55%. Further, the “Bind A*68:01” value at HLA-A*68:01 was 0%. On HLA-C*07:01, the “Bind C*07:01” value turned out to be 22%.

On to VRAYHSMSS [Rv0288_66–74m1], for which the “Bind C*07:01” value at HLA-C*07:01 is recorded as 3%.

For the substance TLQNLGAEI [Rv0288_24–32m1], on HLA-A*02:01, the “Bind A*02:01” value is listed as 26%. Moreover, on HLA-A*24:02, the “Bind A*24:02” value was 4%.

In the case of TMLDHAGDM [Rv0288_10–18m3], on HLA-A*30:02, the “Bind A*30:02” value is 0%. In addition, at HLA-A*02:01, the “Bind A*02:01” value worked out at 24%. In addition, on HLA-A*24:02, the “Bind A*24:02” value turned out to be 14%.

QNLGAEIAV [Rv0288_26–34m1]: the “Bind B*58:01” value on HLA-B*58:01 is given as 0%. In addition, the “Bind A*02:01” value at HLA-A*02:01 is given as 28%.

Turning to DLVRAYHSM [Rv0288_64–72m1], on HLA-A*24:02, the “Bind A*24:02” value amounted to 0%. Besides, the “Bind A*68:01” value at HLA-A*68:01 came to 4%.

For YNYPTMLGH [Rv0288_6–14m1], at HLA-C*07:01, the “Bind C*07:01” value is 0%.

In the case of YNYPTMLDH [Rv0288_6–14m3], on HLA-C*07:01, the “Bind C*07:01” value is recorded as 0%.
